How the values were obtained:
PI3K delta = biological target: T1, PI3K delta (Homo sapiens, UniProt O00329); test: Drug pulldown with immobilized phenylthiazole ligand 1 from MOLT-4 lysate, Western blot; assay type: binding; conditions: 50 mg protein, FIG. 2B
T1 construct: immobilized phenylthiazole ligand 1 captures (pulls down) PI3K gamma and PI3K delta from the cell lysate; endogenous in cells; host or cells: MOLT-4 cells (human T cell line, ATCC CRL-1582), cell lysate
Experimental: (§1) As biological material a cell lysate prepared from MOLT-4 cells was used. The drug pulldown experiment was performed as described in Example 2 with lysate samples containing 50 mg of protein. Captured proteins were eluted with DMSO containing buffer (lane 1), 100 μM of free phenylthiazole ligand 1 or SDS sample buffer (lane 3). The eluted samples were separated on SDS-polyacrylamide gels and transferred to membranes. The blots were first incubated with specific antibodies directed against PI3K gamma (FIG. 2A) and PI3K delta (FIG. 2B). Secondary detection antibodies labeled with fluorescent dyes for detection were used with the Odyssey infrared imaging system.
(§2) To this end a lysate of MOLT-4 cells was contacted with the affinity matrix described in example 1. […]
(§3) For Western blot analysis bound proteins were eluted from the affinity matrix and subsequently separated by SDS-Polyacrylamide gel electrophoresis. PI3K gamma and PI3K delta were detected with specific antibodies (FIG. 2).
(§4) MOLT-4 cells were homogenized in a Potter S homogenizer in lysis buffer: 50 mM Tris-HCl, 0.8% NP40, 5% glycerol, 150 mM NaCl, 1.5 mM MgCl2, 25 mM NaF, 1 mM sodium vanadate, 1 mM DTT, pH 7.5. […] The supernatant was transferred again to a fresh 50 ml falcon tube, the protein concentration was determined by a Bradford assay (BioRad) and samples containing 50 mg of protein per aliquot were prepared. […]

PI3K gamma = biological target: T2, PI3K gamma (Homo sapiens, UniProt P48736); test: as above; assay type: binding; conditions: 50 mg protein, FIG. 2A
T2 construct: PI3K gamma protein was captured by immobilized phenylthiazole ligand 1 from MOLT-4 cell lysate; endogenous in cells; host or cells: MOLT-4 cells (human T cell line, ATCC CRL-1582), cell lysate
T2 sequence (P48736 whole entry): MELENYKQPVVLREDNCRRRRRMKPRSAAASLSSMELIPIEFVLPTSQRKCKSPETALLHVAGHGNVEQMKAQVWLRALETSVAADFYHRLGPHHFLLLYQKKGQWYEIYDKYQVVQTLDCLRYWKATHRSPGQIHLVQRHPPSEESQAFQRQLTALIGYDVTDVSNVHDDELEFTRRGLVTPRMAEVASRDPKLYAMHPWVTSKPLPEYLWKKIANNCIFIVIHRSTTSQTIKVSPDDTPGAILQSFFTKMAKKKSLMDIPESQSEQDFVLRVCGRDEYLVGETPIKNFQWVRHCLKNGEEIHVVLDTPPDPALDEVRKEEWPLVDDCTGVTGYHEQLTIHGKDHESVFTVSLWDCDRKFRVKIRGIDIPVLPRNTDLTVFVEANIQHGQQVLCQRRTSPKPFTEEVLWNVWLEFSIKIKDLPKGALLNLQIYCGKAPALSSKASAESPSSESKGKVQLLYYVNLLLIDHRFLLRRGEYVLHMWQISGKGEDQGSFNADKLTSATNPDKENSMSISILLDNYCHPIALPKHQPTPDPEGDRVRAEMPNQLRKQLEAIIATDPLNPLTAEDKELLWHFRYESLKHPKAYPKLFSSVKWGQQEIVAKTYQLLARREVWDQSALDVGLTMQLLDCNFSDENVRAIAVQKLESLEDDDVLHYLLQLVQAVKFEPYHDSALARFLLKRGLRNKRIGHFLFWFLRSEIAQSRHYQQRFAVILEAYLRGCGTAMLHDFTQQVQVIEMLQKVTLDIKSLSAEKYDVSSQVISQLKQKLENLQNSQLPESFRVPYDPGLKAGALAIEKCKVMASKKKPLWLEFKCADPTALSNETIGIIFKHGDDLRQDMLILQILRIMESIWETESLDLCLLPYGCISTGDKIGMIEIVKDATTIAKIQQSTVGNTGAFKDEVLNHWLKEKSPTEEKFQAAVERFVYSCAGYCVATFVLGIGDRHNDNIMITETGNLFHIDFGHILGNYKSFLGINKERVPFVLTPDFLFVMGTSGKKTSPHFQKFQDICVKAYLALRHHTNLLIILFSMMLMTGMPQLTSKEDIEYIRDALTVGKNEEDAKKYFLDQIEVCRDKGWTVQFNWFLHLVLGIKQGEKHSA
Experimental: as §1, §2, §3, §4

T1 sequence (O00329 whole entry): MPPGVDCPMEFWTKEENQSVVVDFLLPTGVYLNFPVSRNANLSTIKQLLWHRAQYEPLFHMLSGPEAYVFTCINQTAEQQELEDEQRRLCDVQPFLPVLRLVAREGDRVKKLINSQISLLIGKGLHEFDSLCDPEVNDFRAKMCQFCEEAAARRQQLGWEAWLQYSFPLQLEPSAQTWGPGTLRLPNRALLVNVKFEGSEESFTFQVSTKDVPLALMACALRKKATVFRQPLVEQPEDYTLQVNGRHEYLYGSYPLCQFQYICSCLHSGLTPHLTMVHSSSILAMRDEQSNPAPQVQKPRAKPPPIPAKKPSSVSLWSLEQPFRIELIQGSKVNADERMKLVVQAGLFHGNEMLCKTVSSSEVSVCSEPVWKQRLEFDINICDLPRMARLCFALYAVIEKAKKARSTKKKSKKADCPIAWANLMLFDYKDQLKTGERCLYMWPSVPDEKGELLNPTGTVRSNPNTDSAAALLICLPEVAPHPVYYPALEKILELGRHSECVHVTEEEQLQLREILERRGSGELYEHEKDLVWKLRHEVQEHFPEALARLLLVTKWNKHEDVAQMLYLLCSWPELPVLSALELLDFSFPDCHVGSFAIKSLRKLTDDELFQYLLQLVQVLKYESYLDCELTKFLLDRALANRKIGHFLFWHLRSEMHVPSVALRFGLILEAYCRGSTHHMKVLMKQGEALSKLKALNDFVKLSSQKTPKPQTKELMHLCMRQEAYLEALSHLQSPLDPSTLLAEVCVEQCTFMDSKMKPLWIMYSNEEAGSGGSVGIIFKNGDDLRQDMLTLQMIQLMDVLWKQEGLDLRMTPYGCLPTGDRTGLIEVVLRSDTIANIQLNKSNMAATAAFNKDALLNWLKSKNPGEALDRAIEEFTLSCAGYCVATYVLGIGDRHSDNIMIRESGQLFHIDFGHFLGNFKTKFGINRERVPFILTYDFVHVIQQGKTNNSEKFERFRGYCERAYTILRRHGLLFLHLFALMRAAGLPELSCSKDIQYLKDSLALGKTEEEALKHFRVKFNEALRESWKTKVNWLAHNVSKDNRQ
T1 sequence (P27986 whole entry partner): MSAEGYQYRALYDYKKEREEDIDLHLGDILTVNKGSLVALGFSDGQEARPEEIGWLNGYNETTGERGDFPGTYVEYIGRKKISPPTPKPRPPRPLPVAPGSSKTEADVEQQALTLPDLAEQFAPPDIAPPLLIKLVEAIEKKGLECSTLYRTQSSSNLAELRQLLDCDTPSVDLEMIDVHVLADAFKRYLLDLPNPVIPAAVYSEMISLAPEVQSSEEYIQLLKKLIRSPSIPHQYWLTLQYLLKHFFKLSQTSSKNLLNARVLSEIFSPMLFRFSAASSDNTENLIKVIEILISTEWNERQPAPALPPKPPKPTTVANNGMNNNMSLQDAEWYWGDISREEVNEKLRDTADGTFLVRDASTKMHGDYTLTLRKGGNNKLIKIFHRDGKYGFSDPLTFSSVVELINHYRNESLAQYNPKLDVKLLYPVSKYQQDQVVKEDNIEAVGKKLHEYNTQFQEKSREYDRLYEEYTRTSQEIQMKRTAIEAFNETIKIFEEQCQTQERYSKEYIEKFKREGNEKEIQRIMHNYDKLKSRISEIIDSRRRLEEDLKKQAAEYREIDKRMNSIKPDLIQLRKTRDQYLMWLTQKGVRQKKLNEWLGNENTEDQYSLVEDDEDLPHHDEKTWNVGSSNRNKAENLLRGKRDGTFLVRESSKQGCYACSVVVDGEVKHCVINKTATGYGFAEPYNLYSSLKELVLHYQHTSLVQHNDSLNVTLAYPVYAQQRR

Cc1nc(NC(=O)CCOCCOCCOCCOCCN)sc1-c1ccc(Cl)c(S(C)(=O)=O)c1.Cl [phenylthiazole ligand 1, 3-(2-{2-[2-(2-amino-ethoxy)-ethoxy]-ethoxy}-ethoxy)-N-[5-(4-chloro-3-methanesulfonyl-phenyl)-4-methyl-thiazol-2yl]-propionamide hydrochloride]
Capture (pull down) of PI3K delta from the cell lysate (PI3K delta): captures
Capture (pull down) of PI3K gamma from the cell lysate (PI3K gamma): captures

Reference: patent US8153389B2, “Methods for the identification of PI3K interacting molecules and for the purification of PI3K” (CellZone AG, priority 2006, dated 2012)
